The source of these data is ChEMBL document CHEMBL4725442, “Exception That Proves the Rule: Investigation of Privileged Stereochemistry in Designing Dopamine DR Bitopic Agonists” (ACS Med Chem Lett, 2020).

Assay type in all cases: cell-based
The target in test [1] is T1, D(1A) dopamine receptor (Homo sapiens, UniProt P21728). In words: Displacement of [3H]-SCH23390 from human D1 receptor expressed in HEK293 cells after 60 mins by microbeta counting based assay.
The target in test [2] is T1, D(1A) dopamine receptor. In words: Displacement of [3H]-SCH23390 from human D1 receptor expressed in HEK293 cells at 100 uM after 60 mins by microbeta counting based assay relative to control.
The target in test [3] is T2, Mu-type opioid receptor (Homo sapiens, UniProt P35372). Description: Displacement of [3H]-DAMGO from human MOR expressed in HEK293 cells after 60 mins by microbeta counting based assay. (Loss of bound radioactivity is the signal in a displacement assay; it reports binding, not function.)
T2 sequence (P35372 whole entry): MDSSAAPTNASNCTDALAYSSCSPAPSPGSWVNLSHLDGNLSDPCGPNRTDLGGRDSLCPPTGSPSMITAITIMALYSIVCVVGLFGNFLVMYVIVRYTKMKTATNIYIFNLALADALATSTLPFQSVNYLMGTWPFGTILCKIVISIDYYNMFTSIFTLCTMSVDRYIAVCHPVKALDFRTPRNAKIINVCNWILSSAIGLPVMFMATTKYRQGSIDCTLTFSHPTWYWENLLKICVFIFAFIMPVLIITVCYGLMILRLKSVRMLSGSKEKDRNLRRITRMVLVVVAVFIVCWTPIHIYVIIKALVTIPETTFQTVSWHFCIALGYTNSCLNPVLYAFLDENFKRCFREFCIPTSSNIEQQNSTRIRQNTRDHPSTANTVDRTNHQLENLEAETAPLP
The target in test [4] is T2, Mu-type opioid receptor. Description: Displacement of [3H]-DAMGO from human MOR expressed in HEK293 cells at 100 uM after 60 mins by microbeta counting based assay relative to control.
Another test concerns the target D(2) dopamine receptor (Homo sapiens, UniProt P14416). Description: Displacement of [3H]-(R)-(+)-7-OH-DPAT from human D2L receptor expressed in HEK293 cells after 90 mins by microbeta counting based assay.
Another test deals with D(3) dopamine receptor (Homo sapiens, UniProt P35462). Description: Displacement of [3H]-(R)-(+)-7-OH-DPAT from human D3 receptor expressed in HEK293 cells after 90 mins by microbeta counting based assay.
D(3) dopamine receptor, sequence (P35462 whole entry): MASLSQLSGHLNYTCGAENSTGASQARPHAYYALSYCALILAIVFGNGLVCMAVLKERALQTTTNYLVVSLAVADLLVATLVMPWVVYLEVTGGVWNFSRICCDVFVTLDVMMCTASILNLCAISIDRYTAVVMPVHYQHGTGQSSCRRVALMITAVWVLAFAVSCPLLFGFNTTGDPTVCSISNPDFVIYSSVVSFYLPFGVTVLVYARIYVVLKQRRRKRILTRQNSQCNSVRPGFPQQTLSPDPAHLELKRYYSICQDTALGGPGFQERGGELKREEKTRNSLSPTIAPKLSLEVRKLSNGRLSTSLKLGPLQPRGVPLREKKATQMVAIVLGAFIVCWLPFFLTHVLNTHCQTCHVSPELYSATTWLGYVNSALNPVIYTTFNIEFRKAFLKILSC

T1 sequence (P21728 whole entry): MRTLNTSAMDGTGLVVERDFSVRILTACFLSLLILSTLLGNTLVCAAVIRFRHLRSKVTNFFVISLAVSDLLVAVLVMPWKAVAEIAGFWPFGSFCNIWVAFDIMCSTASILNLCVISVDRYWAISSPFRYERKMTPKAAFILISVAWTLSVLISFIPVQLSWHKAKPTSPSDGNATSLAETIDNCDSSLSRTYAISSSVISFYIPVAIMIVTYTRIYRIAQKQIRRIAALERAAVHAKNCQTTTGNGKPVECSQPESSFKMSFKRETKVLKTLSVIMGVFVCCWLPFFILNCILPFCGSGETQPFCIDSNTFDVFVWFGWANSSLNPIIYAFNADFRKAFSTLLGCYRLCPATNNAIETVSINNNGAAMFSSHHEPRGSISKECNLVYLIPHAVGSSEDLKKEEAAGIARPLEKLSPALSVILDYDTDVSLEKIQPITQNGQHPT
D(2) dopamine receptor, sequence (P14416 whole entry): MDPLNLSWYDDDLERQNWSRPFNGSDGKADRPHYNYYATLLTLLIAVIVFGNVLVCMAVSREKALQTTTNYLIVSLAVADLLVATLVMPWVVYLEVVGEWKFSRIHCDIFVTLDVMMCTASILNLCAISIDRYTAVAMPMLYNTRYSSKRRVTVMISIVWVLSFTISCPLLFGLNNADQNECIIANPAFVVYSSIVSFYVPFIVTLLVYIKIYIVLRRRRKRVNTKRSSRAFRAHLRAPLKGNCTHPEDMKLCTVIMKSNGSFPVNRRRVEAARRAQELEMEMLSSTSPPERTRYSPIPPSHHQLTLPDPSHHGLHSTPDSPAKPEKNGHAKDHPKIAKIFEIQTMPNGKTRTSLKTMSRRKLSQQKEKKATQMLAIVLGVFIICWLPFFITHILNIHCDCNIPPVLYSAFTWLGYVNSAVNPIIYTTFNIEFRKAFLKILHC

In general, Ki refers to the equilibrium dissociation constant of an inhibitor or competing ligand from its target. One may read the inhibition as the relative decrease from the control value, in per cent. As for `C[C@H]1CO[C@@H](c2ccc(N)nc2)CN1CC(O)CCNC(=O)c1cc2ccccc2[nH]1` (stereo partly specified), the Ki at D(1A) dopamine receptor [1] was above 100 µM. Moreover, the inhibition at D(1A) dopamine receptor [2] is below 50%.
On D(1A) dopamine receptor [2], `CCCN1CCO[C@@H]2c3cc(O)ccc3OC[C@H]21` registered an inhibition below 50%.
Turning to `CCCN1CCO[C@H]2c3cc(O)ccc3OC[C@@H]21`, the inhibition at D(1A) dopamine receptor [2] is below 50%.
Consider `CCCN1CC(c2ccc(N)nc2)OC[C@@H]1C` (mixture of isomers), for which the Ki on D(1A) dopamine receptor [1] and on Mu-type opioid receptor [3] was above 100 µM throughout. Further, the inhibition at D(1A) dopamine receptor [2] and on Mu-type opioid receptor [4] was below 50% in each case.
On to `C[C@H]1CO[C@@H](c2ccc(N)nc2)CN1CC[C@H]1CC[C@H](NC(=O)c2cc3ccccc3[nH]2)CC1` (relative stereo), for which the Ki on D(1A) dopamine receptor [1] is above 100 µM; at Mu-type opioid receptor [3], 21.9 µM. Besides, the inhibition on D(1A) dopamine receptor [2] is below 50%.
In the case of `O=C(NCCCCN1CCO[C@H]2c3cc(O)ccc3OC[C@@H]21)c1cc2ccccc2[nH]1` (relative stereo), the inhibition constant (Ki) on D(2) dopamine receptor is 5.88 µM; on D(3) dopamine receptor it was 5.54 µM; on D(1A) dopamine receptor [1], above 100 µM; at Mu-type opioid receptor [3], 12.4 µM. The same compound had an inhibition on D(1A) dopamine receptor [2] below 50%.
As to `O=C(NCCCCN1CCO[C@@H]2c3cc(O)ccc3OC[C@@H]21)c1cc2ccccc2[nH]1` (relative stereo), the Ki at D(2) dopamine receptor is 9.42 µM; on D(3) dopamine receptor, 13.8 µM; on D(1A) dopamine receptor [1], above 100 µM; on Mu-type opioid receptor [3], 12.3 µM. The same compound showed an inhibition on D(1A) dopamine receptor [2] below 50%.
